Laboratory results taken from patent US4649215A, “Aliphatic thioethers” (Ciba-Geigy Corporation, priority 1984, dated 1987).
Counter-ions that a name gives are not always drawn.

Columns and labels:
[1] = biological target: phospholipase C from human thrombocytes; experiment: inhibition of phospholipase C obtained from human thrombocytes; assay type: biochemical; details: human thrombocyte enzyme, 37° 5 minutes, pH 6, phosphatidyl-[14C]-inositol
Description: To ascertain the enzyme activity, enzyme (20-100 μg protein) is incubated at 37° for 5 minutes in 0.025M tris/malate buffer pH 6 with the addition of 0.2 mM CaCl2 and 0.02 mM radioactively labelled substrate, phosphatidyl-[^14 C]-inositol. The reaction is stopped by extraction by shaking with CHCl3 /CH3 OH 2:1 (v/v). In the course of this unconsumed substrate is extracted into the organic phase, whilst the reaction product, ^14 C-inositol phosphate, remains in the aqueous phase and can be measured by radiometry of an aliquot.
In order to ascertain the inhibitory action of test substances on phospholipase C, these substances are added in the form of solutions in water, dimethyl sulphoxide (final concentration in the mixture up to 5%, v/v) or ethanol (final concentration in the mixture up to 2.5%, v/v) to the incubation mixture. The strength of action of the test substances is expressed by the IC50, that is to say the concentration that causes a 50% inhibition of the control activity. The IC50 is ascertained on a graph by plotting the percentage inhibition on the ordinate against the log of the concentration (μM) on the abscissa.

[2] = biological target: phospholipase A2 from human leucocytes; experiment: inhibition of phospholipase A2 obtained from human leucocytes; assay type: biochemical; details: human leucocyte enzyme, 37° 1 hour, pH 7, 14C-oleic acid labelled E. coli phospholipides
Description: Human neutrophilic polymorphonuclear leucocytes are isolated from "buffy coats" by multistage fractional sedimentation and deep-frozen. Phospholipase A2 is extracted from the cell suspension by homogenisation with the addition of icecold 0.36N H2 SO4 in 2N NaCl, and the supernatant obtained after centrifugation at 10,000× g is dialysed against sodium acetate buffer pH 4.5.
In order to determine the enzyme activity, enzyme (10-30 μg protein) is incubated at 37° for 1 hour in 0.1M tris/HCl buffer pH 7 with the addition of 1 mM CaCl2 and substrate consisting of phospholipides (2 μm) of Escherichia coli that have been radioactively labelled with ^14 C-oleic acid by means of biosynthesis. The reaction is stopped by the addition of Dole reagent (isopropanol/heptane/1N H2 SO4 40:10:1, v/v) and the ^14 C-oleic acid selectively released by phospholipase A2 is extracted. Substrate also extracted at the same time is completely removed by filtering the extract through a column of silica gel. The ^14 C-oleic acid in the eluate is determined by radiometry.
In order to ascertain the inhibitory action of test substances on phospholipase A2, these substances are added in the form of solutions in water, dimethyl sulphoxide (final concentration in the mixture up to 5% v/v) or ethanol (final concentration in the mixture up to 2.5% v/v) to the incubation mixture. […]

leucotrienes = experiment: leucotriene-antagonistic activity (test not specified); details: reverse absolute configuration at C-5 and C-6 compared with natural leucotrienes
Description: Thus, in various test arrangements in vitro they have a clear leucotriene-antagonistic action.
As already mentioned above, there is a general analogy between the structure of the compounds of the formula I according to the invention and that of leucotrienes, especially in the obligatory trans-configuration of the vicinal S- and O-atoms mentioned at the beginning and the total structure of the mercaptoalkanoic acid residue (A) (especially in its typical form of a cysteine peptide). They differ from leucotrienes essentially in lacking the characteristic terminal carboxy group in the olefinic radical (B).

CCN(CC)CCCC(C)Nc1c2ccc(Cl)cc2nc2ccc(OC)cc12 (stereo not drawn) [mepacrine] was tested, and the IC50 [1] was 20 µM and the IC50 [2] was 1600 µM.
With CCCCCCCC\C=C/C=C/C=C/[C@H](SCC(NC(=O)C(F)(F)F)C(=O)NCC(=O)O)[C@H](O)CCCC (stereo partly drawn) [Example 60A, Sodium salt of N-[S-5(R),6(S)-5-hydroxy-7,9-trans-11-cis-icosatrien-6-yl-N-trifluoroacetylcysteinyl]-glycine] the “activity (leucotriene antagonism), in words” value (leucotrienes) was “highly active”.
